The values below come from patent publication US12030875B2, “EIF4E inhibitors and uses thereof” (PIC Therapeutics, Inc., priority 2018, dated 2024).

Some results are limits rather than exact numbers.

T1 sequence (P06730 28-217): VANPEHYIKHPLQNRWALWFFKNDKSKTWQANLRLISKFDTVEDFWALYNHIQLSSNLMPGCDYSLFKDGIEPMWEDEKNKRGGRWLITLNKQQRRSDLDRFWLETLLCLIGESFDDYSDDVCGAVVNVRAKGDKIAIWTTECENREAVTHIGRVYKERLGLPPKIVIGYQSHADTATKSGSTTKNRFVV

This assay addresses T1, Human eIF4E (Homo sapiens, UniProt P06730).
T1 construct: Human eIF4E (aa 28-217) with a C-terminal His-tag; made in house
Briefly: Human eIF4E/4G2 binding assay (TR-FRET). The settings on record: eIF4E (aa 28-217) with biotin labeled 4G2 peptide. In a few lines: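 His-tagged human eIF4E (aa 28-217), refolded from E. coli inclusion bodies, at 82.5 nM working stock; compounds in 10-point 2-fold DMSO series, preincubated 15 min at RT in 50 mM NaPi pH 6.5, 50 mM KCl, 1 mM DTT. Biotin-4G2 peptide added, 15 min, then Eu-streptavidin/APC-anti-His, 20 min; normalized 665/615 nm TR-FRET signal; IC50 by curve fit.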
The molecule `CC1(C(=O)O)CN(c2nc(-c3ccc(Oc4ccccc4)cc3)c(-c3cncnc3)s2)C1` [Compound I-164] came in with an IC50 of over 25 µM. With `CC1(C(=O)O)CN(c2nc(-c3ccc(Oc4ccccc4)cc3)c(-c3cccnc3)s2)C1` [Compound I-165] the figure was over 25 µM. As for `CC1(C(=O)O)CN(c2nc(-c3ccc(Oc4ccccc4)cc3)c(-c3cccc4[nH]ccc34)s2)C1` [Compound I-166], the figure is 5 to 25 µM; as for `CCCC(CNc1nc(-c2ccc(Oc3ccccc3)cc2)cs1)C(=O)O` (stereo not drawn) [Compound I-167], over 25 µM; as for `CCCC(CNc1nc(-c2ccc(Oc3ccccc3)cc2)c(-c2ccccc2)s1)C(=O)O` (stereo not drawn) [Compound I-168], under 5 µM. As for `CCCC(CNc1nc(-c2ccc(Oc3ccccc3)cc2)c(-c2cncnc2)s1)C(=O)O` (stereo not drawn) [Compound I-169], the figure is over 25 µM; as for `CCCC(CNc1nc(-c2ccc(Oc3ccccc3)cc2)c(-c2cccnc2)s1)C(=O)O` (stereo not drawn) [Compound I-170], over 25 µM; as for `CCCC(CNc1nc(-c2ccc(Oc3ccccc3)cc2)c(-c2cccc3[nH]ccc23)s1)C(=O)O` (stereo not drawn) [Compound I-171], 5 to 25 µM. As to `CC(CC(=O)O)Nc1nc(-c2ccc(Oc3ccccc3)cc2)c(-c2ccccc2)s1` (stereo not drawn) [Compound I-172], the IC50 was in the range of 5 to 25 µM. With `CC(CC(=O)O)Nc1nc(-c2ccc(Oc3ccccc3)cc2)c(-c2cncnc2)s1` (stereo not drawn) [Compound I-173] the figure was over 25 µM.

As to `CC(CC(=O)O)Nc1nc(-c2ccc(Oc3ccccc3)cc2)c(-c2cccnc2)s1` (stereo not drawn) [Compound I-174], the IC50 is over 25 µM. As for `CC(CC(=O)O)Nc1nc(-c2ccc(Oc3ccccc3)cc2)c(-c2cccc3[nH]ccc23)s1` (stereo not drawn) [Compound I-175], the figure is over 25 µM; as for `CC(CNc1nc(-c2ccc(Oc3ccccc3)cc2)cs1)C(=O)O` (stereo not drawn) [Compound I-176], over 25 µM; as for `CC(CNc1nc(-c2ccc(Oc3ccccc3)cc2)c(-c2ccccc2)s1)C(=O)O` (stereo not drawn) [Compound I-177], 5 to 25 µM.

`CC(CNc1nc(-c2ccc(Oc3ccccc3)cc2)c(-c2cncnc2)s1)C(=O)O` (stereo not drawn) [Compound I-178]: the IC50 is over 25 µM. `CC(CNc1nc(-c2ccc(Oc3ccccc3)cc2)c(-c2cccnc2)s1)C(=O)O` (stereo not drawn) [Compound I-179] displayed an IC50 of over 25 µM. As for `CC(CNc1nc(-c2ccc(Oc3ccccc3)cc2)c(-c2cccc3[nH]ccc23)s1)C(=O)O` (stereo not drawn) [Compound I-180], the figure is over 25 µM; as for `O=C(O)C1CCCN(c2nc(-c3ccc(Oc4ccccc4)cc3)cs2)C1` (stereo not drawn) [Compound I-181], over 25 µM; as for `O=C(O)C1CCCN(c2nc(-c3ccc(Oc4ccccc4)cc3)c(-c3ccccc3)s2)C1` (stereo not drawn) [Compound I-182], under 5 µM. As for `O=C(O)C1CCCN(c2nc(-c3ccc(Oc4ccccc4)cc3)c(-c3cncnc3)s2)C1` (stereo not drawn) [Compound I-183], the figure is over 25 µM; as for `O=C(O)C1CCCN(c2nc(-c3ccc(Oc4ccccc4)cc3)c(-c3cccnc3)s2)C1` (stereo not drawn) [Compound I-184], over 25 µM. In turn, `O=C(O)C1CCCN(c2nc(-c3ccc(Oc4ccccc4)cc3)c(-c3cccc4[nH]ccc34)s2)C1` (stereo not drawn) [Compound I-185] displayed an IC50 of under 5 µM.

Molecule `O=C(O)CC1CCCN1c1nc(-c2ccc(Oc3ccccc3)cc2)c(-c2ccccc2)s1` (stereo not drawn) [Compound I-186] yielded an IC50 of under 5 µM. `O=C(O)CC1CCCN1c1nc(-c2ccc(Oc3ccccc3)cc2)c(-c2cncnc2)s1` (stereo not drawn) [Compound I-187]: the IC50 is over 25 µM.

With `O=C(O)CC1CCCN1c1nc(-c2ccc(Oc3ccccc3)cc2)c(-c2cccnc2)s1` (stereo not drawn) [Compound I-188], the IC50 is over 25 µM. As for `O=C(O)CC1CCCN1c1nc(-c2ccc(Oc3ccccc3)cc2)c(-c2cccc3[nH]ccc23)s1` (stereo not drawn) [Compound I-189], the figure is 5 to 25 µM; as for `O=C(O)C1CCN(c2nc(-c3ccc(Oc4ccccc4)cc3)cs2)C1` (stereo not drawn) [Compound I-190], over 25 µM; as for `O=C(O)C1CCN(c2nc(-c3ccc(Oc4ccccc4)cc3)c(-c3ccccc3)s2)C1` (stereo not drawn) [Compound I-191], under 5 µM. `O=C(O)C1CCN(c2nc(-c3ccc(Oc4ccccc4)cc3)c(-c3cncnc3)s2)C1` (stereo not drawn) [Compound I-192]: the IC50 is over 25 µM.

With `O=C(O)C1CCN(c2nc(-c3ccc(Oc4ccccc4)cc3)c(-c3cccnc3)s2)C1` (stereo not drawn) [Compound I-193], the IC50 was over 25 µM. As for `O=C(O)C1CCN(c2nc(-c3ccc(Oc4ccccc4)cc3)c(-c3cccc4[nH]ccc34)s2)C1` (stereo not drawn) [Compound I-194], the figure is 5 to 25 µM; as for `O=C(O)C1(CNc2nc(-c3ccc(Oc4ccccc4)cc3)cs2)CC1` [Compound I-195], over 25 µM.

Turning to `O=C(O)C1(CNc2nc(-c3ccc(Oc4ccccc4)cc3)c(-c3ccccc3)s2)CC1` [Compound I-196], the IC50 is under 5 µM. As for `O=C(O)C1(CNc2nc(-c3ccc(Oc4ccccc4)cc3)c(-c3cncnc3)s2)CC1` [Compound I-197], the figure is over 25 µM; as for `O=C(O)C1(CNc2nc(-c3ccc(Oc4ccccc4)cc3)c(-c3cccnc3)s2)CC1` [Compound I-198], over 25 µM.

`O=C(O)C1(CNc2nc(-c3ccc(Oc4ccccc4)cc3)c(-c3cccc4[nH]ccc34)s2)CC1` [Compound I-199] registered an IC50 of 5 to 25 µM. As for `O=C(O)C1CC(CNc2nc(-c3ccc(Oc4ccccc4)cc3)cs2)C1` (stereo not drawn) [Compound I-200], the IC50 is over 25 µM. In turn, `O=C(O)C1CC(CNc2nc(-c3ccc(Oc4ccccc4)cc3)c(-c3ccccc3)s2)C1` (stereo not drawn) [Compound I-201] registered an IC50 of under 5 µM. As for `O=C(O)C1CC(CNc2nc(-c3ccc(Oc4ccccc4)cc3)c(-c3cncnc3)s2)C1` (stereo not drawn) [Compound I-202], the figure is over 25 µM.

`O=C(O)C1CC(CNc2nc(-c3ccc(Oc4ccccc4)cc3)c(-c3cccnc3)s2)C1` (stereo not drawn) [Compound I-203] registered an IC50 of over 25 µM.

Molecule `O=C(O)C1CC(CNc2nc(-c3ccc(Oc4ccccc4)cc3)c(-c3cccc4[nH]ccc34)s2)C1` (stereo not drawn) [Compound I-204] showed an IC50 of 5 to 25 µM. As for `O=C(O)C1CCN(c2nc(-c3ccc(Oc4ccccc4)cc3)c(-c3ccccc3)s2)CC1` [Compound I-209], the figure is under 5 µM.

As for `O=C(O)C1CCN(c2nc(-c3ccc(Oc4ccccc4)cc3)c(-c3cncnc3)s2)CC1` [Compound I-210], the IC50 is over 25 µM. As for `O=C(O)C1CCN(c2nc(-c3ccc(Oc4ccccc4)cc3)c(-c3cccnc3)s2)CC1` [Compound I-211], the figure is over 25 µM; as for `O=C(O)C1CCN(c2nc(-c3ccc(Oc4ccccc4)cc3)c(-c3cccc4[nH]ccc34)s2)CC1` [Compound I-212], 5 to 25 µM; as for `O=C(O)C1CN(c2nc(-c3ccc(Oc4ccccc4)cc3)c(-c3ccccc3)s2)CCO1` (stereo not drawn) [Compound I-213], under 5 µM. With `O=C(O)C1CN(c2nc(-c3ccc(Oc4ccccc4)cc3)c(-c3cncnc3)s2)CCO1` (stereo not drawn) [Compound I-214] the figure was over 25 µM; with `O=C(O)C1CN(c2nc(-c3ccc(Oc4ccccc4)cc3)c(-c3cccnc3)s2)CCO1` (stereo not drawn) [Compound I-215], over 25 µM; with `O=C(O)C1CN(c2nc(-c3ccc(Oc4ccccc4)cc3)c(-c3cccc4[nH]ccc34)s2)CCO1` (stereo not drawn) [Compound I-216], over 25 µM. As for `CC1(C(=O)O)CCCN(c2nc(-c3ccc(Oc4ccccc4)cc3)c(-c3ccccc3)s2)C1` (stereo not drawn) [Compound I-217], the figure is under 5 µM; as for `CC1(C(=O)O)CCCN(c2nc(-c3ccc(Oc4ccccc4)cc3)c(-c3cncnc3)s2)C1` (stereo not drawn) [Compound I-218], over 25 µM. `CC1(C(=O)O)CCCN(c2nc(-c3ccc(Oc4ccccc4)cc3)c(-c3cccnc3)s2)C1` (stereo not drawn) [Compound I-219]: the IC50 is 5 to 25 µM.

In the case of `CC1(C(=O)O)CCCN(c2nc(-c3ccc(Oc4ccccc4)cc3)c(-c3cccc4[nH]ccc34)s2)C1` (stereo not drawn) [Compound I-220], the IC50 was under 5 µM.

As for `CC(C)[C@@H](CC(=O)O)Nc1nc(-c2ccc(-c3ccc(F)cc3)cc2)c(Br)s1` [Compound I-221], the IC50 is under 5 µM. With `CC(C)[C@H](CC(=O)O)Nc1nc(-c2ccc(-c3ccc(F)cc3)cc2)c(Br)s1` [Compound I-222] the figure was under 5 µM; with `O=C(O)[C@@H]1CCCN(c2nc(-c3ccc(-c4ccc(F)cc4)cc3)c(-c3ccccc3)s2)C1` [Compound I-223], under 5 µM; with `O=C(O)[C@H]1CCCN(c2nc(-c3ccc(-c4ccc(F)cc4)cc3)c(-c3ccccc3)s2)C1` [Compound I-224], under 5 µM. With `O=C(O)C[C@H]1CCCN1c1nc(-c2ccc(-c3ccc(F)cc3)cc2)c(-c2ccccc2)s1` [Compound I-225] the figure was under 5 µM. In the case of `O=C(O)C[C@@H]1CCCN1c1nc(-c2ccc(-c3ccc(F)cc3)cc2)c(-c2ccccc2)s1` [Compound I-226], the IC50 was under 5 µM. With `O=C(O)[C@@H]1CCCN(c2nc(-c3ccc(Oc4ccccc4)cc3)c(-c3ccccc3)s2)C1` [Compound I-227] the figure was under 5 µM; with `O=C(O)[C@H]1CCCN(c2nc(-c3ccc(Oc4ccccc4)cc3)c(-c3ccccc3)s2)C1` [Compound I-228], under 5 µM. As to `CC(CNc1nc(-c2ccc(-c3ccc(F)cc3)cc2)c(C(F)(F)F)s1)C(=O)O` (stereo not drawn) [Compound I-229], the IC50 is under 5 µM.

`Cc1sc(NCC(C)C(=O)O)nc1-c1ccc(-c2ccc(F)cc2)cc1` (stereo not drawn) [Compound I-230] came in with an IC50 of 5 to 25 µM. As for `O=C(O)C1COCCN1c1nc(-c2ccc(-c3ccc(F)cc3)cc2)c(-c2ccccc2)s1` (stereo not drawn) [Compound I-231], the figure is under 5 µM; as for `O=C(O)C1CCCN(c2nc(-c3ccc(-c4ccc(F)cc4)cc3)c(C3CC3)s2)C1` (stereo not drawn) [Compound I-232], under 5 µM. As for `O=C(O)C1CCCN(c2nc(-c3ccc(-c4ccc(F)cc4)cc3)c(C(F)(F)F)s2)C1` (stereo not drawn) [Compound I-233], the figure is under 5 µM.
